biological target: T1, Serine/threonine-protein kinase B-raf (Homo sapiens, UniProt P15056); experiment: Inhibition of human cloned wild type BRAF at 50 uM by ELISA-based MEK phosphorylation assay
T1 sequence (P15056 whole entry): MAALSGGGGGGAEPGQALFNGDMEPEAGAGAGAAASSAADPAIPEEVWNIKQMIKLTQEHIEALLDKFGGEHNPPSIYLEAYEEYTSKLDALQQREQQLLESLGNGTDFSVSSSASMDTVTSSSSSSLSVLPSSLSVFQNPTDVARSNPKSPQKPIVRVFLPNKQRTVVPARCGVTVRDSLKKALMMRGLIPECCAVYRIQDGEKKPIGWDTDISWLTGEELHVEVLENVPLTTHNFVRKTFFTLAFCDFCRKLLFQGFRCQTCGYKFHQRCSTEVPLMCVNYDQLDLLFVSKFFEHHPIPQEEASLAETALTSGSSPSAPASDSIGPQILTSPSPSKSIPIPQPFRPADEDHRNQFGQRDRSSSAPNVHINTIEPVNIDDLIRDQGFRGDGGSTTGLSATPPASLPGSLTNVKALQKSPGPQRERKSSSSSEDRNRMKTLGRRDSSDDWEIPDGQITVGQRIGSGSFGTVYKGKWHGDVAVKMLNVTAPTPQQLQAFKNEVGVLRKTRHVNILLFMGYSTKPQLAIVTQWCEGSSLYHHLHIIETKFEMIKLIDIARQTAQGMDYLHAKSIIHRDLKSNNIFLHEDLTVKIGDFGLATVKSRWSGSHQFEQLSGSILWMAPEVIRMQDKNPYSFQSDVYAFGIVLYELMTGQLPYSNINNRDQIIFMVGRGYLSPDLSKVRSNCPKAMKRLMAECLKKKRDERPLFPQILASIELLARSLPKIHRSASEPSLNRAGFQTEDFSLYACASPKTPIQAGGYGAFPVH

With `Cn1c(=O)[nH]c(=O)c2c1nc(S)n2Cc1ccc(Cl)cc1` the inhibition was 90%.

biological target: Phosphatidylinositol 4,5-bisphosphate 3-kinase catalytic subunit gamma isoform (Homo sapiens, UniProt P48736); experiment: Inhibition of human recombinant PI3Kgamma catalytic domain
Sequence (P48736 whole entry, the tested form may be a part, canonical isoform): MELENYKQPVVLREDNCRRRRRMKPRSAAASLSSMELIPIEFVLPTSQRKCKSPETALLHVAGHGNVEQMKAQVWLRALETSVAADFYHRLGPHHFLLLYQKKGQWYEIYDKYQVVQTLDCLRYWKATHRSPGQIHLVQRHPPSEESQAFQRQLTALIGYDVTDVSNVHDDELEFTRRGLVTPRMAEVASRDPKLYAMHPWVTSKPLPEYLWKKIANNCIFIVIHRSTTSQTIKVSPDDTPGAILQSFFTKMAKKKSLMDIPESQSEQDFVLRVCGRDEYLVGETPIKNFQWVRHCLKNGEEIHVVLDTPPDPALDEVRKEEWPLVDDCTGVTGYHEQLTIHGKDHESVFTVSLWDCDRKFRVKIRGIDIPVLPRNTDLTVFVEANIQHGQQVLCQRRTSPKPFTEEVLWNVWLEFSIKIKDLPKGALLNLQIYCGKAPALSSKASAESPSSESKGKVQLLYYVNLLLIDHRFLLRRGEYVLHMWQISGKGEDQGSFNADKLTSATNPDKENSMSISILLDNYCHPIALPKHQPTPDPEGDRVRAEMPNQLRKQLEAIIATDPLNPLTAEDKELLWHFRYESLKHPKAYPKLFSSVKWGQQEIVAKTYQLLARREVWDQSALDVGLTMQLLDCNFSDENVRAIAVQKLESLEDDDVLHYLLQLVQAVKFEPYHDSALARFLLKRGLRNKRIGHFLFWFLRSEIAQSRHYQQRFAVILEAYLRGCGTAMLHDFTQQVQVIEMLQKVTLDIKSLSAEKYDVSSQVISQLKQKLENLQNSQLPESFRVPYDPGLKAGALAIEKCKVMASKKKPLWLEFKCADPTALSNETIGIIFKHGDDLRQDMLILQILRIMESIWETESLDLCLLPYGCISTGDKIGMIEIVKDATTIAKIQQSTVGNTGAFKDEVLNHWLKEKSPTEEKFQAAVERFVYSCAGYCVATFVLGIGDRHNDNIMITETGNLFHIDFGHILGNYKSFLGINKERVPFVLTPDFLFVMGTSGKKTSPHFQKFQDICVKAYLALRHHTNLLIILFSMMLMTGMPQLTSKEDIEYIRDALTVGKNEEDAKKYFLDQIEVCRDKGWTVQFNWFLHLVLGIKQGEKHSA

In the case of `Cn1c(=O)n(Cc2ccccc2)c(=O)c2c1nc(SCCO)n2Cc1ccccc1`, the IC50 is reported as 25 µM.

biological target: T1, Serine/threonine-protein kinase B-raf
Description: Inhibition of human cloned wild type BRAF by ELISA-based MEK phosphorylation assay

`COc1ccc(OC)c(C(O)c2coc3ccc(O)c(CN4CCOCC4)c23)c1` (stereo not drawn) and `COc1cc(/C=N/NC(=O)CN2CCN(c3ccc(F)cc3)CC2)ccc1O` cannot be ordered by IC50: > 100 µM for the first, > 100 µM for the second.

`COc1cccc(N2C(=O)CC(N3CCN(Cc4ccccc4)CC3)C2=O)c1` (stereo not drawn) and `CCN1CCN(Cc2nc3cc(Cl)ccc3n2Cc2ccccc2)CC1` cannot be ordered by IC50: > 100 µM for the first, > 100 µM for the second.

Going from `Cn1c(=O)[nH]c(=O)c2c1nc(SCC(N)=O)n2Cc1cccc(Br)c1` to `CSc1nc2c(c(=O)[nH]c(=O)n2C)n1Cc1ccccc1`, the IC50 rises from 11.1 µM to 30.1 µM (2.7-fold).

Going from `Cn1c(=O)[nH]c(=O)c2c1[nH]c(=S)n2Cc1ccc(Cl)cc1` to `C/C(=N/Nc1nc2c(c(=O)[nH]c(=O)n2C)n1Cc1ccccc1)c1ccccc1`, the IC50 rises from 2.1 µM to 11.4 µM (5.4-fold).

`O=C(NC(C(=O)c1ccccc1)N1CCOCC1)c1cccs1` (stereo not drawn) and `Cc1ccc(C2CC(c3ccccc3)=NN2C(=O)CN2CCOCC2)o1` (stereo not drawn) cannot be ordered by IC50: > 100 µM for the first, > 100 µM for the second.

`CC(=O)c1c(C)nn2c3ccccc3n(CCN3CCOCC3)c12` and `Cc1cccc(C)c1NC(=O)CSc1nnc(CN2CCOCC2)n1C` cannot be ordered by IC50: > 100 µM for the first, > 100 µM for the second.

Compared with `Cn1c(=O)n(Cc2ccccc2)c(=O)c2c1nc(SCCO)n2Cc1ccccc1`, `C/C(Cl)=C\CSc1nc2c(c(=O)n(Cc3ccccc3)c(=O)n2C)n1Cc1ccccc1` is 6.3-fold higher in IC50: 1.72 µM for the first, 10.9 µM for the second.

`CN1CCN(Cc2c3c(c(CN4CCN(C)CC4)c4c2CCC4)CCC3)CC1` and `CN1CCN(CC(=O)N2N=C(c3cccs3)CC2c2ccco2)CC1` (stereo not drawn) cannot be ordered by IC50: > 100 µM for the first, > 100 µM for the second.

First: C=CCn1c(N/N=C\c2cccc([N+](=O)[O-])c2)nc2c1c(=O)[nH]c(=O)n2C
Second: Cn1c(=O)[nH]c(=O)c2c1nc(N/N=C\c1cccc([N+](=O)[O-])c1)n2Cc1ccccc1
The IC50 of the first is lower: 37.5 µM for the first, > 50 µM for the second. The first is the more potent here.

First: Cc1cc(C)n(-c2nc3c(c(=O)n(C)c(=O)n3C)n2Cc2ccccc2)n1
Second: C/C(=N/Nc1nc2c(c(=O)[nH]c(=O)n2C)n1Cc1ccccc1)c1ccc([N+](=O)[O-])cc1
The IC50 of the first is 13-fold higher: 57.7 µM for the first, 4.6 µM for the second. The second is the more potent here.

Compared with `CC1Nc2nc(NC(=O)c3ccc[n+](C)c3)[nH]c(=O)c2N(C(=O)c2ccc[n+](C)c2)C1C` (stereo not drawn), `C/C(Cl)=C/Cn1c(N/N=C(/C)c2ccc([N+](=O)[O-])cc2)nc2c1c(=O)[nH]c(=O)n2C` is 1.7-fold lower in IC50: 29.4 µM for the first, 17.4 µM for the second. The second is the more potent here.

`COc1cccc(C2CC(C(F)(F)F)n3ncc(C(=O)Nc4ccc(OC)cc4OC)c3N2)c1` (stereo not drawn) and `COc1ccc(CN2CCCN(Cc3ccc(OC)cc3)C2c2cccc(C)n2)cc1` cannot be ordered by IC50: > 100 µM for the first, > 100 µM for the second.

`CCN(CC)Cc1c(C(=O)N/N=C/c2ccco2)nnn1-c1nonc1N` and `Cc1cc(C2C(C(=O)c3ccc4c(c3)OCCO4)=C(O)C(=O)N2CCCn2ccnc2)co1` (stereo not drawn) cannot be ordered by IC50: > 100 µM for the first, > 100 µM for the second.

Going from `O=C(Cn1c2ccccc2n2ncnc12)c1cccs1` to `C/C(Cl)=C\CSc1nc2c(c(=O)[nH]c(=O)n2C)n1CC(O)CCc1ccccc1` (stereo not drawn), the IC50 falls from > 100 µM to 3.75 µM. The second is the more potent here.

`COc1cc(C2C(C#N)=C(N)OC3=C2C(=O)CCC3)ccc1Cn1nc(C)c([N+](=O)[O-])c1C` (stereo not drawn) and `COc1ccccc1N1C(=O)CC(N2CCC(C(N)=O)CC2)C1=O` (stereo not drawn) cannot be ordered by IC50: > 100 µM for the first, > 100 µM for the second.

`Cn1c(=O)[nH]c(=O)c2c1nc(N/N=C\c1ccc([N+](=O)[O-])cc1)n2Cc1ccccc1` showed an IC50 of 57.9 µM.
